Reference: BindingDB's records for doi:10.7270/Q2XS5SVJ (Nmmlsc, 2010)

Target: Guanine nucleotide-binding protein G(o) subunit alpha (Homo sapiens, UniProt P09471)
Experiment: modulators of RGS16 binding to Galphao – biochemical, multiplexed bead assay, additional SAR round, SAR follow-up (AID 2828)

Guanine nucleotide-binding protein G(o) subunit alpha, sequence (P09471 whole entry): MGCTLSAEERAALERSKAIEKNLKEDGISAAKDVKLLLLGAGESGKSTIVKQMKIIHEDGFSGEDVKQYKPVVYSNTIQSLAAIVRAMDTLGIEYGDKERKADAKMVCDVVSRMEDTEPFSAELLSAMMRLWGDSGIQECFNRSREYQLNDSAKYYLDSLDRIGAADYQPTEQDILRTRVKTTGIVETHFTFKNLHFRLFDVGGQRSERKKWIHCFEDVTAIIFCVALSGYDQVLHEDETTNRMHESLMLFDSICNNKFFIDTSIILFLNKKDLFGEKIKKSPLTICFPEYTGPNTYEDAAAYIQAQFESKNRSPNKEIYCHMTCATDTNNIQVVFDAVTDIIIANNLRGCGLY

Structure (SMILES) | EC50 [µM]
O=C(NCCCn1ccnc1)c1sc2cc([N+](=O)[O-])ccc2c1Cl [3-chloro-N-[3-(1-imidazolyl)propyl]-6-nitro-1-benzothiophene-2-carboxamide] | > 30
O=C(NCCCN1CCOCC1)c1sc2cc([N+](=O)[O-])ccc2c1Cl [3-chloranyl-N-(3-morpholin-4-ylpropyl)-6-nitro-1-benzothiophene-2-carboxamide] | > 30
O=C(c1sc2cc([N+](=O)[O-])ccc2c1Cl)N1CCNCC1 | > 30

Other lines, results leading:

EC50 [µM] | Structure (SMILES)
> 30 | Cc1ccc2c(Cl)c(C(=O)NCCCN3CCOCC3)sc2c1 [KUC103874N]
> 30 | NC(=O)c1sc2cc([N+](=O)[O-])ccc2c1Cl [KSC-1-100]
